Results published in patent US12295937B2, “Psychoactive medicines and their use for treating psychiatric and neurological conditions and disorders” (Transcend Therapeutics, Inc., priority 2021, dated 2025).

Tests used:
[1] = Cued fear conditioning / extinction training and recall; assay type: in vivo, mouse
Description: Methods: Cued fear conditioning was performed in C57BL/6J mice. On day 1, animals were placed in the chambers and presented with a training session (CS-US pairing). The training consisted of a 2-minute habituation followed by a 30-second, 80 dB tone; during the last 2 seconds of the tone animals received a 1 mA foot shock. This US-CS procedure occurred once for a total of one paired presentation of tone and shock. Freezing behavior (immobility) was recorded in 5-10-see intervals during the session. Percent baseline freezing behavior was determined in the 2-minute habituation period. On day 3, animals were placed in context B, in which tactile and odor cues differed from context A. Following a 2 minute acclimation period animals received 4×30 sec presentations of the CS (tone) in the absence of the US (footshock), with a 45 sec interval between presentations. Freezing was recorded in 5-10-sec intervals to measure baseline freezing response to the altered context, and freezing response to each tone cuc presentation. […] On day 4 (Post-Extinction Testing in Drug-Free State), animals were placed in Context B. Following a 2 min acclimation period, animals received 4×30 sec extinction tone duration presentations of the CS (tone) in the absence of the US (footshock), with a 45 sec interval between presentations. Freezing was recorded in 5-10-sec intervals to measure baseline freezing response to the altered context, and freezing response to each tone cue presentation.

[2] = target: vesicular monoamine transporter 2 (VMAT2) (Homo sapiens, UniProt Q05940); conditions: cited from earlier work
5HT2C receptor = target: T1, 5HT2C receptor (Homo sapiens, UniProt P28335); experiment: GPCRmax screen, agonist mode, 5HT2C; assay type: cell-based; conditions: 1 or 10 mM
T1 construct: host or cells: PathHunter cell lines
T1 sequence (P28335 33-458): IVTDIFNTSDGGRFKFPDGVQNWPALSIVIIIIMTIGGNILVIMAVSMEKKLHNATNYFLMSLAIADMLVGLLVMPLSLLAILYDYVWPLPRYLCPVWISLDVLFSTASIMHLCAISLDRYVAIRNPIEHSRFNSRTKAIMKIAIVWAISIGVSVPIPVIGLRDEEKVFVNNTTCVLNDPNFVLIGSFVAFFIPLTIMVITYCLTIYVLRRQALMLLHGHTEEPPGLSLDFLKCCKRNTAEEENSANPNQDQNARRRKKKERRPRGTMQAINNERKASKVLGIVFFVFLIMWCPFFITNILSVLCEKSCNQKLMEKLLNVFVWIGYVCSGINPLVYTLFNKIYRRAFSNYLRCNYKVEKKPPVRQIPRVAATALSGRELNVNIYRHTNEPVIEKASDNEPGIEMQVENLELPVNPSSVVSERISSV

DAT = DAT (Rattus norvegicus, UniProt P23977); experiment: [3H]DA uptake inhibition in rat brain synaptosomes; conditions: read-out: Reuptake inhibition: IC50; rat brain synaptosomes
168 GPCRs [3] = target: 168 GPCRs (Homo sapiens, UniProt P08588); experiment: β-arrestin GPCR screen (PathHunter / GPCRmax), antagonist mode; conditions: ADRB1, Antagonist mode, 10 uM
168 GPCRs [4] = target: 168 GPCRs (Homo sapiens, UniProt Q8TDS5); experiment: as above; conditions: OXER1; Antagonist; 1 uM
168 GPCRs (Homo sapiens, UniProt Q8TDS5), sequence (Q8TDS5 whole entry): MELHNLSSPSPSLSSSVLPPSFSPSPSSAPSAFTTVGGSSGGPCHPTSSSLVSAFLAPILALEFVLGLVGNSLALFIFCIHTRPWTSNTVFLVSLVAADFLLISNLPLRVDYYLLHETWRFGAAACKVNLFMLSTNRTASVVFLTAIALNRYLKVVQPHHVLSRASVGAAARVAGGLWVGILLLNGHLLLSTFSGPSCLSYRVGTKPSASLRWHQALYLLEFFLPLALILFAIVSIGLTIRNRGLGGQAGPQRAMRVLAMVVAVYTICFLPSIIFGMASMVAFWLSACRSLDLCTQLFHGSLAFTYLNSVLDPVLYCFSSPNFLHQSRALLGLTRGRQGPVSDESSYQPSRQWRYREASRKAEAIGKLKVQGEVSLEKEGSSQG

168 GPCRs [5] = target: 168 GPCRs (Homo sapiens, UniProt P49190); experiment: as above
168 GPCRs (Homo sapiens, UniProt P49190), sequence (P49190 25-550): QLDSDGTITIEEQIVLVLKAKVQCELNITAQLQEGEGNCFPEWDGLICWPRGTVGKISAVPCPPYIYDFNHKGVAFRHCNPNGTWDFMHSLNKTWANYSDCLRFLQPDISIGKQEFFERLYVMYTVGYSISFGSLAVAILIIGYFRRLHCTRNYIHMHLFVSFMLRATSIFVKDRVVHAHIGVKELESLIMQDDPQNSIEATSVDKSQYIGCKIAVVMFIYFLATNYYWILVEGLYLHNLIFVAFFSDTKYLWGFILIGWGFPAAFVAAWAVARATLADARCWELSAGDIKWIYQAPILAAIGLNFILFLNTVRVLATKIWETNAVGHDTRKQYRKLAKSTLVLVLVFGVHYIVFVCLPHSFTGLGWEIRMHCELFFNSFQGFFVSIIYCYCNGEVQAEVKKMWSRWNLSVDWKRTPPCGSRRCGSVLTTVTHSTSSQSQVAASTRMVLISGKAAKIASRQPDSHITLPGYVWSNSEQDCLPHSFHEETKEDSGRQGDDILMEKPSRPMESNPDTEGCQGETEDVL

168 GPCRs [6] = target: 168 GPCRs (Homo sapiens, UniProt P32248); experiment: as above; conditions: CCR7, Antagonist mode, 10 uM
168 GPCRs (Homo sapiens, UniProt P32248), sequence (P32248 25-378): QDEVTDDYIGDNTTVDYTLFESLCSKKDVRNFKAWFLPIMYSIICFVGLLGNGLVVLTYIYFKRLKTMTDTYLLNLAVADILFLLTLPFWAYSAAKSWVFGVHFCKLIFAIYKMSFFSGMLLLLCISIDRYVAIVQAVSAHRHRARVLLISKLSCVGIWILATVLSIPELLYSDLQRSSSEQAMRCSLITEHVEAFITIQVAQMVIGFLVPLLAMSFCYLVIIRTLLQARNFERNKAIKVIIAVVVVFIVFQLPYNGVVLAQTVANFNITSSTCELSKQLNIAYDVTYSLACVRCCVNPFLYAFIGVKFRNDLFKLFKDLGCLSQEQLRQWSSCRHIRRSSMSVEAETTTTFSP

168 GPCRs [7] = target: 168 GPCRs (Homo sapiens, UniProt O43603); experiment: as above; conditions: GALR2, Antagonist mode, 10 uM
168 GPCRs [8] = target: 168 GPCRs (Homo sapiens, UniProt Q16602); experiment: as above; conditions: CALCRL-RAMP2, Antagonist mode, 10 uM
168 GPCRs [9] = target: 168 GPCRs (Homo sapiens, UniProt P30411); experiment: as above; conditions: BDKRB2, Antagonist mode, 10 uM
168 GPCRs [10] = target: 168 GPCRs (Homo sapiens, UniProt Q16581); experiment: as above; conditions: C3AR1, Antagonist mode, 10 uM
168 GPCRs (Homo sapiens, UniProt Q16581), sequence (Q16581 whole entry): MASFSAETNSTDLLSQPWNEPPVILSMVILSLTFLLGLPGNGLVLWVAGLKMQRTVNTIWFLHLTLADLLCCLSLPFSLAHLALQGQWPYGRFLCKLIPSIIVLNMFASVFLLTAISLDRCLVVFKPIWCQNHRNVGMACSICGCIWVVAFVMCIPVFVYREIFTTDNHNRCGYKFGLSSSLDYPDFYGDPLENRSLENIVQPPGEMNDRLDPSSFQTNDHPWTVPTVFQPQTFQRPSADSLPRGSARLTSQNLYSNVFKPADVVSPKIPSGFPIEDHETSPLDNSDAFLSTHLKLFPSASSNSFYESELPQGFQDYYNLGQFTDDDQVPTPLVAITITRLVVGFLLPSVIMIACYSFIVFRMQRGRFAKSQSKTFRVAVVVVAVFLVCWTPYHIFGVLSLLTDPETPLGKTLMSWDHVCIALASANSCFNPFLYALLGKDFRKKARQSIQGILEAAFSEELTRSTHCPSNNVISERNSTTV

168 GPCRs [11] = target: 168 GPCRs (Homo sapiens, UniProt P43088); experiment: as above; conditions: PTGFR, Antagonist mode, 10 uM
168 GPCRs (Homo sapiens, UniProt P43088), sequence (P43088 whole entry): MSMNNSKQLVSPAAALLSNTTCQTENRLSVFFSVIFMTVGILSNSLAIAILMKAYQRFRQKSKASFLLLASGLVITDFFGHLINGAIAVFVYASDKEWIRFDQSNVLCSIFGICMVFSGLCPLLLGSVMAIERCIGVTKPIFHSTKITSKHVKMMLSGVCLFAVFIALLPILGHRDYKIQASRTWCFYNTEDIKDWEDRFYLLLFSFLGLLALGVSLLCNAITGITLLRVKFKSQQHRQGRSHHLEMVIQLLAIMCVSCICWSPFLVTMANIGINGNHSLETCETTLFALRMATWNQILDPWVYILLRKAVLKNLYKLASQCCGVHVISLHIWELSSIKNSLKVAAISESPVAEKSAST

168 GPCRs [12] = target: T2, 168 GPCRs (Homo sapiens, UniProt P32239); experiment: β-arrestin GPCR screen (PathHunter / GPCRmax), agonist mode; assay type: cell-based; conditions: CCKBR, 1 uM
T2 construct: host or cells: PathHunter cell lines
T2 sequence (P32239 whole entry): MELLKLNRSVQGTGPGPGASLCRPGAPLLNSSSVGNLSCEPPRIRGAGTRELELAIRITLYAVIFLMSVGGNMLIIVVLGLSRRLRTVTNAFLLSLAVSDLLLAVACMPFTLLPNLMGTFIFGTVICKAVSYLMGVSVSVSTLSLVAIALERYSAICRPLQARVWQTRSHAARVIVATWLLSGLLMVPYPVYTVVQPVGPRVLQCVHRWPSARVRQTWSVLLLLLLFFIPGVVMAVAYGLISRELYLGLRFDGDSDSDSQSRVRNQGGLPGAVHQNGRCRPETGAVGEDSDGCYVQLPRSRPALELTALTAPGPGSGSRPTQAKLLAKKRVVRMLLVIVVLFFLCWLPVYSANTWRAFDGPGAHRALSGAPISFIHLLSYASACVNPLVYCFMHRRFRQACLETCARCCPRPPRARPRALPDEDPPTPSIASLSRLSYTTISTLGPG
Description: (§1) For agonist determination, cells were incubated with sample to induce response. […] Vehicle concentration was 1%.

168 GPCRs [13] = target: T3, 168 GPCRs (Homo sapiens, UniProt P34998); experiment: as above; assay type: cell-based; conditions: CRHR1, 1 uM
T3 construct: host or cells: PathHunter cell lines
T3 sequence (P34998 24-415): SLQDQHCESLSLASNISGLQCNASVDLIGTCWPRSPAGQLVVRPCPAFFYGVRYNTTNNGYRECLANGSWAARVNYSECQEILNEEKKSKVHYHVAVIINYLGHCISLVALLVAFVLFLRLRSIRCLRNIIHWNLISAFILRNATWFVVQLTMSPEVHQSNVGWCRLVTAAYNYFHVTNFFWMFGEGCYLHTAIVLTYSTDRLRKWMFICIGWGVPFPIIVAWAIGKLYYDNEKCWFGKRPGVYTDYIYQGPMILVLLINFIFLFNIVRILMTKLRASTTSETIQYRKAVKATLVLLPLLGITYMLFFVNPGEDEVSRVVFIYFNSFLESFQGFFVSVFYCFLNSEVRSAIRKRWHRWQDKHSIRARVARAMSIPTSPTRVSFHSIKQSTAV
Description: as §1

168 GPCRs [14] = experiment: as above; assay type: cell-based; conditions: CCR, 10 uM
Description: as §1

168 GPCRs [15] = target: T4, 168 GPCRs (Homo sapiens, UniProt P32249); experiment: as above; assay type: cell-based; conditions: EBI2, 1 uM
T4 construct: host or cells: PathHunter cell lines
T4 sequence (P32249 whole entry): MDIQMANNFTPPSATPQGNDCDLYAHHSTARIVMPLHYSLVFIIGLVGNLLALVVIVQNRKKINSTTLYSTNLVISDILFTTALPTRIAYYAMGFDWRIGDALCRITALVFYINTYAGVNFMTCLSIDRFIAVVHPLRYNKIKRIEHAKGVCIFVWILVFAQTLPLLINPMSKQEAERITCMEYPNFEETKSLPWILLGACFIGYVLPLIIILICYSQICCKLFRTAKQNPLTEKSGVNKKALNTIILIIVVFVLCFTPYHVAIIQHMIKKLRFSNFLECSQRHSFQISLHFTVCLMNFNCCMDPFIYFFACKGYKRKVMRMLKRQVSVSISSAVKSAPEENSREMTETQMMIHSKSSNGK
Description: as §1

168 GPCRs [16] = target: T5, 168 GPCRs (Homo sapiens, UniProt P49238); experiment: as above; assay type: cell-based; conditions: CX3CR1, 1 uM
T5 construct: host or cells: PathHunter cell lines
T5 sequence (P49238 whole entry): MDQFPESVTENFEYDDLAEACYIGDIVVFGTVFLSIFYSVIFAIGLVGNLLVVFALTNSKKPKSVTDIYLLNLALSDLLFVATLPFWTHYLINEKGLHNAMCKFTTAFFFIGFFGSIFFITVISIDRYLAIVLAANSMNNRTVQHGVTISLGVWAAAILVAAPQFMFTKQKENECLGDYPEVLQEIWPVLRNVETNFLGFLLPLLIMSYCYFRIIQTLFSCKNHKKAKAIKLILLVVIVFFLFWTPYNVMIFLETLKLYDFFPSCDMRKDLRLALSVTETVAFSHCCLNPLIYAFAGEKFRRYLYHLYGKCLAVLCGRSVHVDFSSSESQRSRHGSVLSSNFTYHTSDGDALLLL
Description: as §1

168 GPCRs [17] = target: T6, 168 GPCRs (Homo sapiens, UniProt Q99788); experiment: as above; assay type: cell-based; conditions: CMKLR1, 1 uM
T6 construct: host or cells: PathHunter cell lines
T6 sequence (Q99788 whole entry): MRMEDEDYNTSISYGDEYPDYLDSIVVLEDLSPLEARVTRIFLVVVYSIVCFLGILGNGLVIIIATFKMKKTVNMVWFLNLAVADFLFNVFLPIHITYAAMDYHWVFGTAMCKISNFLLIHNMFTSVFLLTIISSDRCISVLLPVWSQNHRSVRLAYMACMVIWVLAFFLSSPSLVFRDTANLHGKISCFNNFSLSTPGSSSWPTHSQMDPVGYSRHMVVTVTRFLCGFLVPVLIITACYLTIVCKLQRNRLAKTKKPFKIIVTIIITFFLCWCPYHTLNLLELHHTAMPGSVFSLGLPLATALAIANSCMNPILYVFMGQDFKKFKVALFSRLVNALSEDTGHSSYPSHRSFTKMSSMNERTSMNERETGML
Description: as §1

168 GPCRs [18] = target: T7, 168 GPCRs (Homo sapiens, UniProt P35408); experiment: as above; assay type: cell-based; conditions: PTGER4, 1 uM
T7 construct: host or cells: PathHunter cell lines
T7 sequence (P35408 whole entry): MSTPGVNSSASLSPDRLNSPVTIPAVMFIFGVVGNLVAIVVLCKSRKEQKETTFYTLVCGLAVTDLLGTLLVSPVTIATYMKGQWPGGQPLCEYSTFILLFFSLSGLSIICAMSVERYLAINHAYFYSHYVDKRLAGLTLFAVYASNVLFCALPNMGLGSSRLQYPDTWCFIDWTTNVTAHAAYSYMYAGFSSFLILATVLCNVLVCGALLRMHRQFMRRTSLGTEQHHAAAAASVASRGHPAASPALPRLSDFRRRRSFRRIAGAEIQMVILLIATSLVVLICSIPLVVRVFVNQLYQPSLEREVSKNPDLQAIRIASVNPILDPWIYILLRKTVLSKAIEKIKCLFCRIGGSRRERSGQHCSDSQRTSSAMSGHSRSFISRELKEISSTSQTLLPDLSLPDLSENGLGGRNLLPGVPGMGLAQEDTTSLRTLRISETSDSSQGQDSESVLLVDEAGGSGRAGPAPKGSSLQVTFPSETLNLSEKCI
Description: as §1

[19] = tested on: myelin basic protein (MBP); experiment: Myelin basic protein immunohistochemistry in amygdala; assay type: in vivo, rat; conditions: 10 mg/kg IP, 24 h
Description: Immunohistochemistry: The in-life portion of the study was conducted at WuXi Apptec (Cranbury, NJ). Sectioning and staining of brains took place at Neuroscience Associates (NSA, Knoxville, TN). […] Brains were post-fixed in PFA before shipment to NSA for processing and staining. Hemisected brains were mounted, sectioned and stained using standard protocols with myelin-basic protein primary antibody (MBP SMI-99, 1:5000, Biolegend, San Diego, CA) and anti-mouse biotinylated secondary antibody (BA-2001, Vector Laboratories, Newark, CA). Slides were imaged using a Huron Digital Pathology TissueScope LE120 whole slide scanning system. 20× objective was used with a 0.4 μm/pixel resolution.

CNC(C)C(=O)c1ccc2c(c1)OCO2 (stereo not drawn) [Methylone, 3,4-methylenedioxy-N-methylcathinone]
Persistence of effect post dose ([1]; 30 mg/kg IP): at least 11 days
Effect on fear extinction training and testing ([1]; 30 mg/kg IP, 30 min before extinction training on Day 3): rapid, robust and long-lasting beneficial effect on fear extinction training and testing
Fear extinction training on day 3 ([1]; 10, 20 or 30 mg/kg IP): All doses significantly improved fear extinction training on day 3
Affinity for VMAT2, times lower than that of MDMA [2]: about 13 ×
Agonist % activity (5HT2C receptor): no agonist or antagonist activity
IC50 (DAT): 2.3 µM
% Activity (168 GPCRs [3]): −1.2%
% Activity (168 GPCRs [4]): 2.9%
% Activity (168 GPCRs [5]; PTHR2, Antagonist mode, 10 uM): −0.2%
% Activity (168 GPCRs [5]; PTHR2, Antagonist, 1 uM): −1%
% Activity (168 GPCRs [6]): −3.4%
% Activity (168 GPCRs [7]): 1.5%
% Activity (168 GPCRs [8]): 7%
% Activity (168 GPCRs [9]): −2.6%
% Activity (168 GPCRs [10]): 0.3%
% Activity (168 GPCRs [11]): 0%
% Activity (168 GPCRs [12]): −1%
% Activity (168 GPCRs [13]): 1.4%
% Activity (168 GPCRs [14]): 3.6%
% Activity (168 GPCRs [15]): 0.5%
% Activity (168 GPCRs [16]): 0%
% Activity (168 GPCRs [17]): −0.2%
% Activity (168 GPCRs [18]): 2.8%
MBP in basolateral and central nuclei of the amygdala vs. vehicle [19]: significant reduction in MBP
